# Reference: patent US8039501B2, “Synephrine derivatives useful as anti-inflammatory agents” (Universiteit Gent, priority 2005, dated 2011)
# What was measured:
# [1] = tested on: Saos-2; test: Q-PCR gene expression in osteosarcoma cell-line Saos-2; assay type: cell-based, human; conditions: 10 μM
# Procedure: CpdA was synthesized as described previously. […] They were sacrificed and livers were isolated. […] Gene expression of HPRT was used for normalization. […] Gene expression of HPRT was used for normalization. […] Gene expression of HPRT was used for normalization. Statistical significance was determined by one way anova. […] Gene expression of HPRT was used for normalization. […] Gene expression of HPRT was used for normalization. Statistical significance was determined by one way anova. […] Statistical significance was determined with a Kruskal-Wallis test.
# [2] = tested on: L363 cell line; test: MTT test, cell viability of L363 cells; assay type: cell-based, human; conditions: Homo sapiens, L-363; 10^−4 M; 10% FCS; FIG. 3B; read-out: Block of L363 cell viability
# Procedure: The MTT test is a standard assay addressing cell toxicity of a compound. It is based on the principle that after 3-4 hours of cell incubation with MTT (3-(4,5-dimethylthiazole-2-yl)-2,5-diphenyl tetrazolium bromide) so-called purple formazan crystals develop in living and early apoptotic cells. Dead cells don't produce formazan crystals.
# Different cell lines were tested. Unless indicated differently, A549 human lung epithelial cells (derived from lung carcinoma) and L929sA murine fibroblast cells were cultured in DMEM with 10% FCS, 100 U/ml penicillin and 100 μg/ml streptomycin. Unless indicated differently, the human multiple myeloma cell lines L363, U266 and MM1.S were cultured in RPMI 1640 with Glutamax-I, supplemented with 10% FCS, 100 U/ml penicillin and 100 μg/ml streptomycin. Cells were seeded at 5000 cells/well (for adherent A549 and L929sA cells) or at 10000 cells/well (for the multiple myeloma lines in suspension) in 96 well plates. Cells were incubated in the presence of the respective synephrine compounds or vehicle (EtOH; for control test) in a final volume of 0.2 ml for 24 or 48 hours at 37° C. Subsequently, 20 μl of MTT solution (5 mg/ml in phosphate-buffered saline) was added to each well. After 4 hours incubation at 37° C., 80 μl of the extraction buffer (10% SDS, 0.01 M HCl) was added. After overnight incubation at room temperature, the optical densities at 590 nm were measured. Results are illustrated in FIGS. 2 to 6 and are expressed as percentage of viable cells as compared to vehicle-treated controls.
# The MTT test was further extended to include alternative synephrine derivatives and a range of multiple myeloma cell lines for which the results are illustrated by FIGS. 3A, 3B and 4A. Human multiple myeloma cell lines L363, U266 and MM1.S were cultured in RPMI 1640 with Glutamax-I, supplemented with 10% FCS, 100 U/ml penicillin and 100 μg/ml streptomycin. Cells were seeded at 10000 cells/well in 96 well plates. Cells were incubated in the presence of test compounds or vehicle in a final volume of 0.2 ml for 24 or 48 hours at 37° C. The test compounds included in the test were the synephrine derivatives CpdA, Naphth, Benz and Isobut, and DEX as a comparative example. Subsequently, 20 μl of MTT solution (5 mg/ml in phosphate-buffered saline) was added to each well. After 4 hours incubation at 37° C., 80 μl of the extraction buffer (10% SDS, 0.01 M HCl) was added. After 48 hours incubation at room temperature, the optical densities at 590 nm were measured. Results are expressed as percentage of viable cells as compared to vehicle-treated controls.
structure (smiles),measurement,setting,value
"CNCC(Cl)c1ccc(OC(C)=O)cc1.Cl (centres unmarked) [CpdA, 2-(4-acetoxyphenyl)-2-chloro-N-methyl-ethylammonium chloride]",RANKL/OPG ratio,[1]; 24 hours,does not alter the RANKL/OPG ratio
same,Expression of osteoclast differentiation markers M-CSF and RANKL,"[1]; 24 hours, FIG. 15, RANKL solvent versus CpdA p>0.05",does not stimulate the expression
same,Expression of OPG,"[1]; 24 hours, FIG. 15, solvent versus CpdA p>0.05",does not down-regulate the expression of OPG
same,Expression of pro-inflammatory mediators (anti-inflammatory effect),"[1]; TNF 2000 U/ml 6 hours, FIG. 16",anti-inflammatory effect
same,cytotoxicity at 100 µM,[2],50%
